Consider 16 compounds from ChEMBL document CHEMBL5241120, “Insights into the medicinal chemistry of heterocycles integrated with a pyrazolo[1,5-a]pyrimidine scaffold” (RSC Med Chem, 2022).

Converted amounts (≈) assume the structure as drawn.

One data set has as its system Aspergillus clavatus. Nature of the data set: Antifungal activity against Aspergillus clavatus. The class given is functional.
Data set [1] relates to Aspergillus niger. Description: Antifungal activity against Aspergillus niger. The class given is functional.
Data set [2] relates to Candida albicans. Description: Antifungal activity against Candida albicans assessed as zone of inhibition. The data set is classed as functional.
The subject of data set [3] is Bacillus subtilis. Nature of the data set: Antibacterial activity against Bacillus subtilis. The data set is classed as functional.
Data set [4] has as its system Escherichia coli. Description: Antibacterial activity against Escherichia coli. The data set is classed as functional.
In a further data set the test system is CHO-K1. Description: Cytotoxicity against CHO-K1 cells by MTT assay. The data set is classed as toxicity, cell-based, Cricetulus griseus. The arrangement: concentration or dose not given beside the values. As to conditions: chinese hamster. On the technique in general: Tetrazolium assays rely on reduction of a dye to a coloured formazan, in cell work by metabolically active cells.

The test system of the next data set is Mus musculus. Nature of the data set: Antiinflammatory activity in mouse assessed as inhibition of paw edema after 24 hrs. The class given is functional. Set-up: scale not given: the % may be the effect or the level left.
For data set [5], the target named is T1, liver carboxylesterase (CES) (Sus scrofa, UniProt Q29550).
T1 sequence (Q29550 whole entry): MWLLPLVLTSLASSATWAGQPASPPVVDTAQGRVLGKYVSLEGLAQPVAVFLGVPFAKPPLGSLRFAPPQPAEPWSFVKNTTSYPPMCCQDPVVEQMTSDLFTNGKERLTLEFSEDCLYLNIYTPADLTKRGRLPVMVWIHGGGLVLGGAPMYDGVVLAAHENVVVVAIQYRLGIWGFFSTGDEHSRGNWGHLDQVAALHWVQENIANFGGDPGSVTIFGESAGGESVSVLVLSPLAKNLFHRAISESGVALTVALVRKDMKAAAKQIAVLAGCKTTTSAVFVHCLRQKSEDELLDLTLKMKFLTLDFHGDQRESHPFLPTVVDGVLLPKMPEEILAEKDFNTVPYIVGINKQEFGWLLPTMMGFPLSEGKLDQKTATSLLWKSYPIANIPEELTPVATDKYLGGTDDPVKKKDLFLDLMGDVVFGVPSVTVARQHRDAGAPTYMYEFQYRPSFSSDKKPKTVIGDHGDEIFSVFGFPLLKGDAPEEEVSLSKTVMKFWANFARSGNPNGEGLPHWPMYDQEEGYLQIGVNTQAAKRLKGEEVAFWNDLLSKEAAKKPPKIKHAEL
Nature of the data set: Inhibition of pig liver CES at 20 uM relative to control. The data set is classed as tissue-based.

Data set [6] has as its system Rattus norvegicus. Description: Analgesic activity in Sprague-Dawley rat at 15 mg/kg after 2 hrs by hot plate test. The data set is classed as functional.
Data set [7] in a line: Antioxidant activity assessed as ABTS radical scavenging activity. The class given is functional.
Data set [8] is described as follows: Inhibition of Hepatitis C virus NS3 protease. The class given is functional, Hepacivirus hominis.
In data set [9] the test system is MCF7. Description: Cytotoxicity against human MCF7 cells by MTT assay. The data set is classed as functional, cell-based.
A further data set has as its system Pseudomonas aeruginosa. Nature of the data set: Antibacterial activity against Pseudomonas aeruginosa assessed as zone of inhibition. The class given is functional.
For the next data set, the system named is HepG2. Nature of the data set: Cytotoxicity against human HepG2 cells by MTT assay. The class given is functional, cell-based.
Data set [10] relates to MCF7. Nature of the data set: Cytotoxicity against human MCF7 cells by SRB assay. The data set is classed as functional, cell-based.
For data set [11], the target named is T2, Prostaglandin G/H synthase 1 (Ovis aries, UniProt P05979).
T2 sequence (P05979 whole entry): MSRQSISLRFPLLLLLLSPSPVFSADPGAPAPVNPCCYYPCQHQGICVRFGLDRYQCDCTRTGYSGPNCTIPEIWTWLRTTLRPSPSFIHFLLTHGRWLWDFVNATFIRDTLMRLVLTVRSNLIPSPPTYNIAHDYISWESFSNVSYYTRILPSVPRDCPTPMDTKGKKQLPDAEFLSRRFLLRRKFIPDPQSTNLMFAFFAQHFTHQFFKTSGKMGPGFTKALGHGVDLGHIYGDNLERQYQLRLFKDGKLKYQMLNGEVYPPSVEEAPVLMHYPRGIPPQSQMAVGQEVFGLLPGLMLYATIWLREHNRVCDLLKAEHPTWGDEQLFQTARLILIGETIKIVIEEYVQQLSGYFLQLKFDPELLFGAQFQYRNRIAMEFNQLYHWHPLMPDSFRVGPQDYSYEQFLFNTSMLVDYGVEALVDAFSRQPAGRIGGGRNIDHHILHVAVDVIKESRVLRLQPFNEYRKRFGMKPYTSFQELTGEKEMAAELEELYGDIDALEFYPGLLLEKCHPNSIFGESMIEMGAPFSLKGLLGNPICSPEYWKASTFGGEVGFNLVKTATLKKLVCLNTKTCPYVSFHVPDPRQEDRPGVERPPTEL
Nature of the data set: Inhibition of ovine COX-1.

Data set [12] has as its system Rattus norvegicus. Nature of the data set: Antiinflammatory activity in rat assessed as inhibition of carrageenan induced paw edema at 50 mg/kg. The data set is classed as functional. The arrangement: scale not given: the % may be the effect or the level left. A general note: Carrageenan injected into the paw causes an acute inflammation.
The nature of data set [13]: Inhibition of soybean 15-LOX. The arrangement: species or system Glycine max.
For another data set, the system named is Staphylococcus aureus. Nature of the data set: Antibacterial activity against Staphylococcus aureus assessed as zone of inhibition. The class given is functional.
Data set [14] relates to Aspergillus niger. Description: Antifungal activity against Aspergillus niger assessed as zone of inhibition. The data set is classed as functional.
The next data set relates to Salmonella typhimurium. Nature of the data set: Antibacterial activity against Salmonella typhimurium assessed as zone of inhibition. The data set is classed as functional, Salmonella enterica subsp. enterica serovar Typhimurium.
The next data set concerns Salmonella enterica. Description: Antibacterial activity against Salmonella enterica assessed as zone of inhibition. The class given is functional.
Data set [15] concerns Bacillus subtilis. Nature of the data set: Antibacterial activity against Bacillus subtilis assessed as zone of inhibition. The data set is classed as functional.
Data set [16] relates to Escherichia coli. Description: Antibacterial activity against Escherichia coli assessed as zone of inhibition. The class given is functional.
In a further data set the target is T3, Androgen receptor (Homo sapiens, UniProt P10275).
T3 sequence (P10275 whole entry): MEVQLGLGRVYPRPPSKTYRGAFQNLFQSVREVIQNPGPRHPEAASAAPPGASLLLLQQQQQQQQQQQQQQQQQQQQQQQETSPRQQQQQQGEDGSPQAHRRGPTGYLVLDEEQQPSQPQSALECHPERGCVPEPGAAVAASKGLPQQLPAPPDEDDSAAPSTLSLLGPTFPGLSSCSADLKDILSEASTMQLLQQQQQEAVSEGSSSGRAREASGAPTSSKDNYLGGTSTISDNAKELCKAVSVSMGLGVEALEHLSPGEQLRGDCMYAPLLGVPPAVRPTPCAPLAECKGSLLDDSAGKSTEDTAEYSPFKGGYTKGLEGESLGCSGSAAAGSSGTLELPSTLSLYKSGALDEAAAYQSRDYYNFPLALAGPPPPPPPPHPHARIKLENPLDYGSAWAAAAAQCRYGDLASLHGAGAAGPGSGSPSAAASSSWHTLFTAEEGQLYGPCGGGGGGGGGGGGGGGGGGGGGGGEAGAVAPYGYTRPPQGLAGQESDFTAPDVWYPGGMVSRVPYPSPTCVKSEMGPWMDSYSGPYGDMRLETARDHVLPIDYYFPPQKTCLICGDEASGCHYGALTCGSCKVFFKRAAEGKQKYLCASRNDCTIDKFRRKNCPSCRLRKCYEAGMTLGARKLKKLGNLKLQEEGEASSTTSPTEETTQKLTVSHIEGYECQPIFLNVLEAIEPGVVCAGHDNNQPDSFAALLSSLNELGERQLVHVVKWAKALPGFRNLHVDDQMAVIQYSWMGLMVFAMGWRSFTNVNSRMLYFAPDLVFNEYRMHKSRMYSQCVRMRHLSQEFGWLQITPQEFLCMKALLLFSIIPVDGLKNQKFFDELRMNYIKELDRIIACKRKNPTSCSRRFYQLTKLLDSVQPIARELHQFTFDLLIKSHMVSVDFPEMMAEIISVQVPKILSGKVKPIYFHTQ
Description: Antagonist activity at androgen receptor (unknown origin).

For data set [17], the system named is Candida albicans. Description: Antifungal activity against Candida albicans. The class given is functional.

On to `Cc1cc(NN2C(=O)C3CCCCC3C2=O)n2ncc(C#N)c2n1` (stereo unspecified), for which the MIC in the data set on Aspergillus clavatus, against Aspergillus niger [1], against Bacillus subtilis [3] and in the data set with Escherichia coli [4] was 10 µg/mL (≈ 30.8 µM) in each case. Besides, the “inhibition zone (IZ)” value with Candida albicans [2] is on record as 19.1 mm.

`COc1ccc(-c2cnc3c(C(=O)Nc4c(C)n(C)n(-c5ccccc5)c4=O)cnn3c2N)cc1`: the Activity stood at 72.96% in the data set on CHO-K1 and 25% in the data set on Mus musculus.

For the compound `Cc1c(NC(=O)c2cnn3c(N)c(-c4ccccc4)cnc23)c(=O)n(-c2ccccc2)n1C`, the Activity in the data set on CHO-K1 is recorded as 45.75%.

Regarding `CC(=O)c1cnc2c(C(=O)Nc3c(C)n(C)n(-c4ccccc4)c3=O)cnn2c1C`, the Activity in the data set with CHO-K1 is 72.46%; with Mus musculus, 16.57%.

On to `COC(=O)c1cnc2c(C(=O)Nc3c(C)n(C)n(-c4ccccc4)c3=O)cnn2c1C`, for which, in the data set with CHO-K1, the Activity is on record as 49.24%.

`Cc1ccc(N/N=C2\C(=O)n3nc(-c4ccccc4)cc3N=C2C(F)(F)F)cc1` had an inhibition at 20 µM in [5] of 2.91%. Besides, the values for the Activity (with Rattus norvegicus [6]; in [7]) were 47.4% and 0.19 µM, respectively.

In data set [8], `CC(C)OC(=O)[C@H](C)N[P@](=O)(OC[C@H]1O[C@@H](n2ccc(=O)[nH]c2=O)[C@](C)(F)[C@@H]1O)Oc1ccccc1` [SOFOSBUVIR] had an IC50 of 3.2 µg/mL (≈ 6.04 µM).

As for `COc1ccc(-c2ccnc3c(C(N)=O)c(Nc4ccccc4)nn23)cc1`, the results for the IC50 in the data set with MCF7 [9], with HepG2 and with MCF7 [10] were 63.4 µM, 79.8 µM and 63.1 µM, respectively. In the data set on Pseudomonas aeruginosa, the “inhibition zone (IZ)” value was found to be 9 mm.

Compound `O=[N+]([O-])c1ccc(OP(=O)(O)Oc2ccc([N+](=O)[O-])cc2)cc1` showed an inhibition at 20 µM in data set [5] of 1.8%.

As for `CCOc1cc(N)n2nc(Nc3cc(OC)ccn3)c(C#N)c2n1`, the IC50 in data set [11] is 8.5 µM; in [13], 8.2 µM. The Activity in the data set on Rattus norvegicus [12] is given as 46%.

`Nc1nn2c(-c3ccc(S(=O)(=O)c4ccccc4)cc3)ccnc2c1/N=N/c1cccc(Cl)c1`: the “inhibition zone (IZ)” value in the data set with Staphylococcus aureus was found to be 23.4 mm; in the data set with Aspergillus niger [14] it was 25.1 mm; with Salmonella typhimurium, 26.3 mm.

Consider `CC1(C)S[C@@H]2[C@H](NC(=O)[C@H](N)c3ccccc3)C(=O)N2[C@H]1C(=O)O` [AMPICILLIN], for which the “inhibition zone (IZ)” value was 23 mm with Salmonella enterica, 21 mm with Staphylococcus aureus, 26 mm in the data set on Bacillus subtilis [15] and 25 mm in the data set with Escherichia coli [16].

In turn, `COc1ccc(C2CC(C(F)(F)F)n3nc(-c4ccc(C(=O)O)cc4)cc3N2)cc1OC` (stereo unspecified) came in with an IC50 on Androgen receptor of 23.4 µM.

Take `NC(=O)c1c(Nc2ccccc2)nn2c(-c3ccccc3)cc(-c3ccccc3)nc12`: in the data set with Candida albicans [17], 15.6 µg/mL (≈ 38.5 µM) was the least that counted as inhibitory (MIC).

For the compound `CCOc1cc(C)nc2c(C#N)c(Nc3cc(OC)ccn3)nn12`, the IC50 in data set [11] came to 7.9 µM; in [13], 8.4 µM. The Activity in the data set on Rattus norvegicus [12] amounted to 46%.

Consider `CC1(C2CC(C(F)(F)F)n3nc(C(=O)O)cc3N2)CC1` (stereo unspecified), for which 214 µM corresponded to half-maximal inhibition against Androgen receptor (IC50).

What is called MIC is the least concentration at which growth counts as inhibited. For orientation: inhibition means the change of the read-out against control, counted positive when it falls. In general, IC50 refers to the concentration at which inhibition is half-maximal.
